Values after ≈ are worked out from the molar mass of the structure shown.
How the values were obtained:
Escherichia coli [1] = experiment: In vivo activity in mice infected intraperitoneally with Escherichia coli; conditions: sc, 96 h, read-out: CD50 (dose with which 50% of the test animals survive); mice infected i.p. with Escherichia coli; s.c. 1, 2 1/2 and 4 hours after infection; survival on fourth day; by interpolation
Procedure: Groups of 5 mice are infected intraperitoneally with an aqueous suspension of Escherichia coli. The test substance is administered subcutaneously in physiological common salt solution three times, i.e. 1 hour, 21/2 hours and 4 hours, after the infection. The number of surviving animals is determined on the fourth day.

Pseudomonas aeruginosa = experiment: In vitro antimicrobial activity (minimum inhibitory concentration); assay type: cell-based
From the text: (§1) In vitro activity: minimum inhibitory concentration (μg/ml)

Proteus mirabilis = experiment: as above; assay type: cell-based
From the text: as §1

Serratia marcescens = experiment: as above; assay type: cell-based
From the text: as §1

Proteus rettgeri = experiment: as above; assay type: cell-based; conditions: Providencia rettgeri
From the text: as §1

Haemophilus influenzae = experiment: as above; assay type: cell-based
From the text: as §1

Proteus vulgaris = experiment: as above; assay type: cell-based
From the text: as §1

Staphylococcus aureus = experiment: as above; assay type: cell-based
From the text: as §1

Klebsiella pneumoniae = experiment: as above; assay type: cell-based
From the text: as §1

Escherichia coli [2] = experiment: as above; assay type: cell-based
From the text: as §1

[3] = Pseudomonas aeruginosa strain 1
[4] = Pseudomonas aeruginosa strain 2
[5] = Pseudomonas aeruginosa strain 3
[6] = Pseudomonas aeruginosa strain 4
[7] = Pseudomonas aeruginosa strain 5
[8] = Pseudomonas aeruginosa strain 6
[9] = Pseudomonas aeruginosa strain 7
[10] = Haemophilus influenzae strain 1
[11] = Haemophilus influenzae strain 2
[12] = Haemophilus influenzae strain 3
[13] = Haemophilus influenzae strain 4
[14] = Haemophilus influenzae strain 5
[15] = Haemophilus influenzae strain 6
[16] = Haemophilus influenzae strain 7
[17] = ATCC6538, Staphylococcus aureus strain ATCC 6538
[18] = Staphylococcus aureus pencillin-resistant strain

Compound | ED50 (Escherichia coli [1]) [mg/kg] | MIC (Pseudomonas aeruginosa; [3]) [µg/mL] | MIC (Pseudomonas aeruginosa; [4]) [µg/mL] | MIC (Pseudomonas aeruginosa; [5]) [µg/mL] | MIC (Pseudomonas aeruginosa; [6]) [µg/mL] | MIC (Pseudomonas aeruginosa; [7]) [µg/mL] | MIC (Pseudomonas aeruginosa; [8]) [µg/mL] | MIC (Pseudomonas aeruginosa; [9]) [µg/mL] | MIC (Proteus mirabilis; Proteus mirabilis strain 1) [µg/mL] | MIC (Proteus mirabilis; Proteus mirabilis strain 2) [µg/mL] | MIC (Serratia marcescens) [µg/mL] | MIC (Proteus rettgeri) [µg/mL] | MIC (Haemophilus influenzae; [10]) [µg/mL] | MIC (Haemophilus influenzae; [11]) [µg/mL] | MIC (Haemophilus influenzae; [12]) [µg/mL] | MIC (Haemophilus influenzae; [13]) [µg/mL] | MIC (Haemophilus influenzae; [14]) [µg/mL] | MIC (Haemophilus influenzae; [15]) [µg/mL] | MIC (Haemophilus influenzae; [16]) [µg/mL] | MIC (Proteus vulgaris) [µg/mL] | further results
CO/N=C(\C(=O)N[C@@H]1C(=O)N2C(C(=O)O)=C(CSc3nc(=O)c(O)nn3C)CS[C@H]12)c1csc(NC(=O)CCl)n1 [Product B, (6R,7R)-7-[2-[2-(2-Chloroacetamido)-4-thiazolyl]-2-(Z-methoxyimino)acetamido]-3-[[(2,5-dihydro-6-hydroxy-2-methyl-5-oxo-as-triazin-3-yl)thiol]methyl]-8-oxo-5-thia-1-azabicyclo[4.2.0]oct-2-ene-2-carboxylic acid] | 0.16 | 1.2 (≈ 1.9 µM) | > 80 | 40 (≈ 63.4 µM) | 80 (≈ 127 µM) | 80 (≈ 127 µM) | 80 (≈ 127 µM) | 80 (≈ 127 µM) | 0.08 (≈ 0.127 µM) | 0.16 (≈ 0.254 µM) | 2.5 (≈ 3.96 µM) | 0.16 (≈ 0.254 µM) | 1.2 (≈ 1.9 µM) | 0.3 (≈ 0.475 µM) | 0.16 (≈ 0.254 µM) | 0.16 (≈ 0.254 µM) | 0.08 (≈ 0.127 µM) | 0.16 (≈ 0.254 µM) | 0.16 (≈ 0.254 µM) | 0.16 (≈ 0.254 µM) | MIC (Staphylococcus aureus; [17]): 2.5 µg/mL (≈ 3.96 µM); MIC (Staphylococcus aureus; [18]): 5 µg/mL (≈ 7.92 µM); MIC (Klebsiella pneumoniae): 10 µg/mL (≈ 15.8 µM); MIC (Escherichia coli [2]; Escherichia coli strain 1): 0.16 µg/mL (≈ 0.254 µM); MIC (Escherichia coli [2]; Escherichia coli strain 2): 5 µg/mL (≈ 7.92 µM); LD50 (in vivo; iv): 250 to 500 mg/kg; LD50 (in vivo; po): > 5000 mg/kg; LD50 (in vivo; sc): 2000 to 4000 mg/kg
CO/N=C(\C(=O)N[C@@H]1C(=O)N2C(C(=O)O)=C(CSc3nc(=O)c(O)nn3C)CS[C@H]12)c1csc(N)n1 [Product A] | ≤ 0.005 | 0.3 (≈ 0.541 µM) | 10 (≈ 18 µM) | 2.5 (≈ 4.51 µM) | 5 (≈ 9.02 µM) | 5 (≈ 9.02 µM) | 10 (≈ 18 µM) | 5 (≈ 9.02 µM) | ≤ 0.01 | ≤ 0.01 | 0.08 (≈ 0.144 µM) | ≤ 0.01 | 0.08 (≈ 0.144 µM) | 0.005 (≈ 0.00902 µM) | 0.005 (≈ 0.00902 µM) | 0.005 (≈ 0.00902 µM) | 0.0025 (≈ 0.00451 µM) | 0.0025 (≈ 0.00451 µM) | 0.0025 (≈ 0.00451 µM) | ≤ 0.01 | MIC (Staphylococcus aureus; [17]): 2.5 µg/mL (≈ 4.51 µM); MIC (Staphylococcus aureus; [18]): 2.5 µg/mL (≈ 4.51 µM); MIC (Klebsiella pneumoniae): 1.2 µg/mL (≈ 2.16 µM); MIC (Escherichia coli [2]; Escherichia coli strain 1): 0.02 µg/mL (≈ 0.0361 µM); MIC (Escherichia coli [2]; Escherichia coli strain 2): 0.6 µg/mL (≈ 1.08 µM)
